From patent EP1013768A1, “Mutant epoxide hydrolases” (priority 1998, dated 2000)

What was measured:
Format in all cases: biochemical
[1] = tested on: epoxide hydrolase from Agrobacterium radiobacter AD1, Tyr215Phe mutant; experiment: Stereoselective hydrolysis (kinetic resolution) of styrene oxides with Tyr215Phe mutant; details: substrate 5 mM, Tris buffer 50 mM pH9, 30°C, 10% DMSO for meta- and para-chlorostyrene oxide, chiral GLC
Description: Site directed mutagenesis was done as described by Kunkel (Proc. Natl. Acad. Sci. U.S.A., 82, 488-492 (1985)) with uracil-containing single stranded plasmid pEH20 as template (Rink et al.). Tyr^215 was mutated to Phe with the primer 5'-[…]-3' (mutated codon underlined). In order to confirm the mutation, the whole gene was sequenced as described in Rink et al.
(§1) A screw-cap bottle containing 30 ml Tris buffer^1 (50 mM pH9) was incubated in a shaking waterbath at 30°C. Styrene oxides (SO) as indicated in table 3 were added to a final concentration of 5 mM. The reaction was started by the addition of the a purified enzyme solution of the Tyr215Phe mutant of the epoxide hydrolase from Agrobacterium radiobacter AD1. The kinetic resolution was monitored by periodically taking 1 ml samples (with a 1 ml syringe) from the closed screw-cap bottle. The samples were extracted with diethylether containing 20 mM mesitylene as an internal standard. Prior to analysis by chiral GLC the water was removed from the sample by passing it through a short column containing MgSO4. The enantiomeric excess (%ee) and the yield of the epoxides was determined with a Hewlett-Packard 5890 gas chromatograph equipped with a FID-detector, using a Chiraldex G-TA capillary column, of 50 m lenght and 0.25 mm inside diameter. The data from the chiral GLC are as follows: • styrene oxide, tr(S)=12.4 min and tr(R)=14.8 min at 110°C; • meta-chlorostyrene oxide, tr(S)=20.2 min and tr(R)= 31.1 min at 120°C; • para-chlorostyrene oxide, tr(S)=40.7 min and tr(R)= 43.0 min at 100°C. ^1 In case of meta-chlorostyrene oxide and para-chlorostyrene oxide the buffer also contained 10% DMSO

[2] = tested on: epoxide hydrolase from Agrobacterium radiobacter AD1, wild type, SEQ ID No. 1; experiment: Stereoselective hydrolysis (kinetic resolution) of styrene oxides, comparative experiment with wild type enzyme; details: substrate 5 mM, Tris buffer 50 mM pH9, 30°C, 10% DMSO for meta- and para-chlorostyrene oxide, chiral GLC
Description: as §1
Example III was repeated using the corresponding wild type epoxide hydrolase for Agrobacterium radiobacter AD1.

[3] = tested on: epoxide hydrolase from Agrobacterium radiobacter AD1, Tyr152Phe mutant; experiment: Stereoselective hydrolysis (kinetic resolution) of racemic styrene oxide with Tyr152Phe mutant; details: as Example III (5 mM, Tris buffer 50 mM pH9, 30°C)

Structure (SMILES) | E-value [1] | E-value [2] | E-value [3]
O=[N+]([O-])c1ccc(C2CO2)cc1 (racemic) [P-NO2-SO] | > 200 | 100 | 
c1ccc(C2CO2)cc1 (racemic) [SO, styrene oxide] | 30 | 16 | ≥ 40
Clc1cccc(C2CO2)c1 (stereo not drawn) [M-Cl-SO, meta-chlorostyrene oxide] | 13 | 6.5 | 
Clc1ccc(C2CO2)cc1 (stereo not drawn) [P-Cl-SO, para-chlorostyrene oxide] | 130 | 32 | 
